This is an account of results in article PMC11571797, “Vitamin B6 inhibits activity of Helicobacter pylori adenylosuccinate synthetase and growth of reference and clinical, antibiotic-resistant H. pylori strains” (Journal of Enzyme Inhibition and Medicinal Chemistry, 2024).

The test has as its target T1, adenylosuccinate synthetase (AdSS) (Helicobacter pylori, UniProt P56137).
T1 construct: gene purA
Description: X-ray crystal structure with IMP ([…] A); enzyme inhibition, GTP-competitive, and time-dependent inactivation (IC50^eq […] without GTP). The test is classed as biochemical.

Structures are written as SMILES. pKi: −log10 of the molar value.

T1 sequence (P56137 whole entry): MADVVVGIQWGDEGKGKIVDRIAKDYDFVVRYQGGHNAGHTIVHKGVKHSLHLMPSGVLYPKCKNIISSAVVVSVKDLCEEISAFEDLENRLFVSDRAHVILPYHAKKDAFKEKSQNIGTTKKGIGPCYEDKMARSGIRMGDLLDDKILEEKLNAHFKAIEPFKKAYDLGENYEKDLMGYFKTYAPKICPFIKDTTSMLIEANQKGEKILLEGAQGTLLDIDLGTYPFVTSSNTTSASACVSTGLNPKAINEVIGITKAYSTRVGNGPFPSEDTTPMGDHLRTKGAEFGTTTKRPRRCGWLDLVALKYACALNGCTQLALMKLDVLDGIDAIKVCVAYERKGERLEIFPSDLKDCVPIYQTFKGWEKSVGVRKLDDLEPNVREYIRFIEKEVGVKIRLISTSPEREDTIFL

One may read the pKi as −log10 of the Ki, conventionally taken in molar units. With `Cc1ncc(COP(=O)(O)O)c(C=O)c1O` [PLP, pyridoxal 5'-phosphate], the pKi was 5.16.
